These are literature values, as cited in patent US20130177904A1, “ARNT ISOFORM 3 AS A PREDICTOR OF AMINOFLAVONE RESPONSIVENESS IN CANCER CELLS” (UNIVERSITY OF MARYLAND, BALTIMORE, priority 2010, published 2013).

The series has as its system nonspecific plasma esterases. To be noted: by nonspecific plasma esterases; cited from earlier work.

With `CS(=O)(=O)O.Cc1c(F)c(N)c2c(=O)cc(-c3ccc(NC(=O)[C@@H](N)CCCCN)c(F)c3)oc2c1F` [AFP-464], the “conversion to AF in plasma” value is “rapid conversion to AF”.
